Reference: US8952024B2, “Herbicidal pyrimidone derivatives” (E I du Pont de Nemours and Company, priority 2009, dated 2015)

Columns and labels:
Type in all cases: in vivo
[1] = system: chickweed (Stellaria media); assay: Test B postemergence plant response; conditions: Postemergence; for Chickweed plant response rating: 250 g ai/ha, scale 0 to 100
Outline: (§1)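 Plants grown in peat/vermiculite medium were sprayed postemergence at 2–18 cm height (1- to 4-leaf stage). After 13–15 days in the greenhouse, response was rated visually against untreated controls on a 0–100 scale (0 no effect, 100 complete control).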

[2] = system: windgrass (Apera spica-venti); assay: Test B postemergence plant response; conditions: Postemergence; for Windgrass plant response rating: 250 g ai/ha, scale 0 to 100
Outline: as §1

[3] = system: canarygrass (Phalaris minor); assay: Test B postemergence plant response; conditions: Postemergence; for Canarygrass plant response rating: 250 g ai/ha, scale 0 to 100
Outline: as §1

[4] = system: wheat (Triticum aestivum); assay: Test B pre-/postemergence plant response
Text: (§2) Seeds of plant species selected from blackgrass (Alopecurus myosuroides), downy bromegrass (Bromus tectorum), green foxtail (Setaria viridis), Italian ryegrass (Lolium multiflorum), wheat (Triticum aestivum), wild oat (Avena fatua), deadnettle (henbit deadnettle, Lamium amplexicaule), galium (catchweed bedstraw, Galium aparine), bermudagrass (Cynodon dactylon), Surinam grass (Brachiaria decumbens), cocklebur (Xanthium strumarium), corn (Zea mays), large crabgrass (Digitaria sanguinalis), woolly cupgrass (Eriochloa villosa), giant foxtail (Setaria faberii), goosegrass (Eleusine indica), johnsongrass (Sorghum halepense), kochia (Kochia scoparia), lambsquarters (Chenopodium album), morningglory (Ipomoea coccinea), nightshade (eastern black nightshade, Solanum ptycanthum), yellow nutsedge (Cyperus esculentus), pigweed (Amaranthus retroflexus), ragweed (common ragweed, Ambrosia elatior), Russian thistle (Salsola kali), soybean (Glycine max), sunflower (common oilseed sunflower, Helianthus annuus) and velvetleaf (Abutilon theophrasti) were planted into a blend of loam soil and sand and treated preemergence with test compounds formulated in a non-phytotoxic solvent mixture which included a surfactant.
(§3) At the same time, plants selected from these crop and weed species and also winter barley (Hordeum vulgare), canarygrass (Phalaris minor), chickweed (Stellaria media) and windgrass (Apera spica-venti) were planted in pots containing Redi-Earth® planting medium (Scotts Company, 14111 Scottslawn Road, Marysville, Ohio 43041) comprising spaghnum peat moss, vermiculite, wetting agent and starter nutrients and treated with postemergence applications of some of the test chemicals formulated in the same manner. Plants ranged in height from 2 to 18 cm (1- to 4-leaf stage) for postemergence treatments.
(§4) Treated plants and controls were maintained in a greenhouse for 13 to 15 days, after which time all treated plants were visually evaluated and compared to controls. Plant response ratings, summarized in Table B, are based on a scale of 0 to 100 where 0 is no effect and 100 is complete control. A dash (-) response means no test result.

[5] = system: wild oat (Avena fatua); assay: Test B pre-/postemergence plant response
Text: as §2, §3, §4

[6] = system: kochia (Kochia scoparia); assay: Test B pre-/postemergence plant response
Text: as §2, §3, §4

[7] = system: pigweed (Amaranthus retroflexus); assay: Test B pre-/postemergence plant response
Text: as §2, §3, §4

[8] = system: cocklebur (Xanthium strumarium); assay: Test B pre-/postemergence plant response
Text: as §2, §3, §4

[9] = system: goosegrass (Eleusine indica); assay: Test B pre-/postemergence plant response
Text: as §2, §3, §4

[10] = system: johnsongrass (Sorghum halepense); assay: Test B pre-/postemergence plant response
Text: as §2, §3, §4

[11] = system: soybean (Glycine max); assay: Test B pre-/postemergence plant response
Text: as §2, §3, §4

[12] = system: velvetleaf (Abutilon theophrasti); assay: Test B pre-/postemergence plant response
Text: as §2, §3, §4

[13] = system: ragweed (common ragweed, Ambrosia elatior); assay: Test B pre-/postemergence plant response
Text: as §2, §3, §4

[14] = 31 g ai/ha, scale 0 to 100 (0 no effect, 100 complete control)
[15] = 62 g ai/ha, scale 0 (no effect) to 100 (complete control), 13 to 15 days
[16] = 125 g ai/ha, visual rating after 13 to 15 days, scale 0 (no effect) to 100 (complete control)
[17] = Postemergence, 31 g ai/ha, scale 0 to 100 (0 no effect, 100 complete control)
[18] = Postemergence, 62 g ai/ha, scale 0 (no effect) to 100 (complete control), 13 to 15 days
[19] = Postemergence, 125 g ai/ha, visual rating after 13 to 15 days, scale 0 (no effect) to 100 (complete control)
[20] = Postemergence, 250 g ai/ha, scale 0 to 100
[21] = 250 g ai/ha, Preemergence, 0 to 100 scale
[22] = Preemergence, 31 g ai/ha, scale 0 to 100 (0 no effect, 100 complete control)
[23] = Preemergence, 62 g ai/ha, scale 0 to 100 (0 no effect, 100 complete control)
[24] = Preemergence, 125 g ai/ha, 0 to 100 scale

## Cc1ccc(-n2c(-c3ccccc3)ncc(C(=O)C3=C(O)CCCC3=O)c2=O)cc1 [Compound 8]
[1]; [14]
  Plant response rating, Chickweed: 98
[1]; [15]
  Plant response rating, Chickweed: 100
[1]; [16]
  Plant response rating, Chickweed: 100
[1]
  Chickweed plant response rating: 100
[2]; [14]
  Plant response rating, Windgrass: 5
[2]; [15]
  Plant response rating, Windgrass: 20
[2]; [16]
  Plant response rating, Windgrass: 30
[2]
  Windgrass plant response rating: 40
[3]; [14]
  Plant response rating, Canarygrass: 20
[3]; [15]
  Plant response rating, Canarygrass: 50
[3]; [16]
  Plant response rating, Canarygrass: 70
[3]
  Canarygrass plant response rating: 85
[4]; [17]
  Plant response rating, Wheat: 25
[4]; [18]
  Plant response rating, Wheat: 30
[4]; [19]
  Plant response rating, Wheat: 35
[4]; [20]
  Wheat plant response rating: 35
[5]; [17]
  Plant response rating, Oat, Wild: 10
[5]; [18]
  Plant response rating, Oat, Wild: 15
[5]; [19]
  Plant response rating, Oat, Wild: 35
[5]; [20]
  Oat, Wild plant response rating: 35
[6]; [17]
  Plant response rating, Kochia: 85
[6]; [18]
  Plant response rating, Kochia: 100
[6]; [19]
  Plant response rating, Kochia: 100
[6]; [20]
  Kochia plant response rating: 100
[7]; [17]
  Plant response rating, Pigweed: 98
[7]; [18]
  Plant response rating, Pigweed: 100
[7]; [19]
  Plant response rating, Pigweed: 100
[7]; [20]
  Pigweed plant response rating: 100
[8]; [17]
  Plant response rating, Cocklebur: 100
[8]; [18]
  Plant response rating, Cocklebur: 100
[8]; [19]
  Plant response rating, Cocklebur: 100
[8]; [20]
  Cocklebur plant response rating: 100
[9]; [17]
  Plant response rating, Goosegrass: 80
[9]; [18]
  Plant response rating, Goosegrass: 85
[9]; [19]
  Plant response rating, Goosegrass: 95
[9]; [20]
  Goosegrass plant response rating: 100
[10]; [17]
  Plant response rating, Johnsongrass: 80
[10]; [18]
  Plant response rating, Johnsongrass: 98
[10]; [19]
  Plant response rating, Johnsongrass: 98
[10]; [20]
  Johnsongrass plant response rating: 100
[11]; [17]
  Plant response rating, Soybean: 98
[11]; [18]
  Plant response rating, Soybean: 98
[11]; [19]
  Plant response rating, Soybean: 98
[11]; [20]
  Soybean plant response rating: 100
[12]; [17]
  Plant response rating, Velvetleaf: 75
[12]; [18]
  Plant response rating, Velvetleaf: 80
[12]; [19]
  Plant response rating, Velvetleaf: 95
[12]; [20]
  Velvetleaf plant response rating: 100
[13]; [17]
  Plant response rating, Ragweed: 90
[13]; [18]
  Plant response rating, Ragweed: 100
[13]; [19]
  Plant response rating, Ragweed: 100
[13]; [20]
  Ragweed plant response rating: 100

## Cc1ccccc1-n1c(-c2ccccc2)ncc(C(=O)C2=C(O)CCCC2=O)c1=O [Compound 12]
[1]; [14]
  Plant response rating, Chickweed: 100
[1]; [15]
  Plant response rating, Chickweed: 100
[1]; [16]
  Plant response rating, Chickweed: 100
[1]
  Chickweed plant response rating: 100
[2]; [14]
  Plant response rating, Windgrass: 10
[2]; [15]
  Plant response rating, Windgrass: 40
[2]; [16]
  Plant response rating, Windgrass: 45
[2]
  Windgrass plant response rating: 50
[3]; [14]
  Plant response rating, Canarygrass: 0
[3]; [15]
  Plant response rating, Canarygrass: 5
[3]; [16]
  Plant response rating, Canarygrass: 5
[3]
  Canarygrass plant response rating: 40
[4]; [21]
  Plant response rating, Wheat: 0
[4]; [17]
  Plant response rating, Wheat: 0
[4]; [18]
  Plant response rating, Wheat: 0
[4]; [19]
  Plant response rating, Wheat: 0
[4]; [20]
  Wheat plant response rating: 0
[4]; [22]
  Plant response rating, Wheat: 0
[4]; [23]
  Plant response rating, Wheat: 0
[4]; [24]
  Wheat plant response rating: 0
[5]; [21]
  Plant response rating, Oat, Wild: 5
[5]; [17]
  Plant response rating, Oat, Wild: 0
[5]; [18]
  Plant response rating, Oat, Wild: 5
[5]; [19]
  Plant response rating, Oat, Wild: 20
[5]; [20]
  Oat, Wild plant response rating: 20
[5]; [22]
  Plant response rating, Oat, Wild: 0
[5]; [23]
  Plant response rating, Oat, Wild: 0
[5]; [24]
  Oat, Wild plant response rating: 0
[6]; [21]
  Plant response rating, Kochia: 100
[6]; [17]
  Plant response rating, Kochia: 20
[6]; [18]
  Plant response rating, Kochia: 20
[6]; [19]
  Plant response rating, Kochia: 60
[6]; [20]
  Kochia plant response rating: 65
[6]; [22]
  Plant response rating, Kochia: 15
[6]; [23]
  Plant response rating, Kochia: 100
[6]; [24]
  Kochia plant response rating: 100
[7]; [21]
  Plant response rating, Pigweed: 100
[7]; [17]
  Plant response rating, Pigweed: 95
[7]; [18]
  Plant response rating, Pigweed: 95
[7]; [19]
  Plant response rating, Pigweed: 98
[7]; [20]
  Pigweed plant response rating: 100
[7]; [22]
  Plant response rating, Pigweed: 100
[7]; [23]
  Plant response rating, Pigweed: 100
[7]; [24]
  Pigweed plant response rating: 100
[8]; [21]
  Plant response rating, Cocklebur: 100
[8]; [17]
  Plant response rating, Cocklebur: 70
[8]; [18]
  Plant response rating, Cocklebur: 98
[8]; [19]
  Plant response rating, Cocklebur: 100
[8]; [20]
  Cocklebur plant response rating: 100
[8]; [22]
  Plant response rating, Cocklebur: 25
[8]; [23]
  Plant response rating, Cocklebur: 80
[8]; [24]
  Cocklebur plant response rating: 98
[9]; [21]
  Plant response rating, Goosegrass: 100
[9]; [17]
  Plant response rating, Goosegrass: 70
[9]; [18]
  Plant response rating, Goosegrass: 85
[9]; [19]
  Plant response rating, Goosegrass: 98
[9]; [20]
  Goosegrass plant response rating: 100
[9]; [22]
  Plant response rating, Goosegrass: 85
[9]; [24]
  Goosegrass plant response rating: 100
[10]; [21]
  Plant response rating, Johnsongrass: 98
[10]; [17]
  Plant response rating, Johnsongrass: 55
[10]; [18]
  Plant response rating, Johnsongrass: 60
[10]; [19]
  Plant response rating, Johnsongrass: 60
[10]; [20]
  Johnsongrass plant response rating: 75
[10]; [22]
  Plant response rating, Johnsongrass: 0
[10]; [23]
  Plant response rating, Johnsongrass: 0
[10]; [24]
  Johnsongrass plant response rating: 75
[11]; [21]
  Plant response rating, Soybean: 95
[11]; [17]
  Plant response rating, Soybean: 98
[11]; [18]
  Plant response rating, Soybean: 100
[11]; [19]
  Plant response rating, Soybean: 100
[11]; [20]
  Soybean plant response rating: 100
[11]; [22]
  Plant response rating, Soybean: 60
[11]; [23]
  Plant response rating, Soybean: 65
[11]; [24]
  Soybean plant response rating: 80
[12]; [21]
  Plant response rating, Velvetleaf: 100
[12]; [17]
  Plant response rating, Velvetleaf: 80
[12]; [18]
  Plant response rating, Velvetleaf: 85
[12]; [19]
  Plant response rating, Velvetleaf: 98
[12]; [20]
  Velvetleaf plant response rating: 100
[12]; [22]
  Plant response rating, Velvetleaf: 90
[12]; [23]
  Plant response rating, Velvetleaf: 100
[12]; [24]
  Velvetleaf plant response rating: 100
[13]; [21]
  Plant response rating, Ragweed: 100
[13]; [17]
  Plant response rating, Ragweed: 100
[13]; [18]
  Plant response rating, Ragweed: 100
[13]; [19]
  Plant response rating, Ragweed: 100
[13]; [20]
  Ragweed plant response rating: 100
[13]; [22]
  Plant response rating, Ragweed: 90
[13]; [23]
  Plant response rating, Ragweed: 98
[13]; [24]
  Ragweed plant response rating: 100
